ChEMBL document CHEMBL3880396, “Calcium channel inhibitors comprising benzhydril spaced from piperazine” (2004)

Columns and labels:
[1] = Selectivity ratio of IC50 for alpha1C/alpha2delta/beta1b L-type calcium channel (unknown origin) to IC50 for rat brain […] N-type calcium channel
[2] = Selectivity ratio of IC50 for alpha1A/alpha2delta/beta1b P/Q-type calcium channel (unknown origin) to IC50 for rat brain […] N-type calcium channel

Row | Structure (SMILES) | Ratio IC50 [1] | Ratio IC50 [2]
1 | CCOC(=O)C1CN(C(c2ccccc2)c2ccccc2)CCN1C(=O)CC(c1ccccc1)c1ccccc1 (configuration not stated) | 2880 | 69
2 | COc1ccc(C(c2ccc(C(F)(F)F)cc2)N2CCN(C(=O)CC(c3ccccc3)c3ccccc3)CC2)cc1 (configuration not stated) | > 54 | 41
3 | O=C(CC(c1ccccc1)c1ccccc1)N1CCN(C(c2ccccc2)c2ccc(C(F)(F)F)cc2)CC1 (configuration not stated) | 103 | 5.1
4 | O=C(O)C1CN(C(c2ccccc2)c2ccccc2)CCN1C(=O)CC(c1ccccc1)c1ccccc1 (configuration not stated) | 103 | 9.4
5 | CC(C)(C)c1cc(C(c2ccccc2)N2CCN(C(=O)CC(c3ccccc3)c3ccccc3)CC2)cc(C(C)(C)C)c1O (configuration not stated) | > 40 | > 40
6 | O=C(CC(c1ccccc1)c1ccccc1)N1CCN(C(c2ccccc2)c2ccc(Cl)cc2)CC1 (configuration not stated) | 831 | 28
